Assay results published in patent publication US12594283B2 (The Medical College of Wisconsin, Inc., priority 2019, dated 2026).
Like-named read-outs stand apart in the source and are kept apart here.

Tests used:
cyt bc1 [1] = molecular target: cyt bc1 (Homo sapiens, UniProt P00156); conditions: mammalian cells; cited from earlier work
[2] = system: CD4+ T cells from SMARTA triple reporter mice; test: In vitro differentiation of CD4+ T regulatory cells, flow cytometry; format: cell-based, mouse; conditions: for Treg (FoxP3+CD25+) differentiation and/or survival: six days culture with TGFβ and IL-2, ATO, butyl-ATO, decyl-ATO up to 60 μM; for Teff cell IFNγ production: six days culture, IFNγ-GFP positive cells within live CD4+ T cells
Source text: FIG. 5. In vitro differentiation of CD4^+ T regulatory cells under varying concentrations of Mito-ATOs and controls. After six days of culture, cells were stained for flow cytometry analysis. (left) Live/dead staining to assess the percentage of live CD4+ T cells within the lymphocyte gate. (middle) Teff cell function is shown as the frequency of IFNγ-GFP positive cells within the live CD4^+ T cells. (right) The percentage of Treg cells is shown as the frequency of FoxP3^+CD25^+ cells within the live CD4^+ T cells.
After six days, cells were stained to assess viability, phenotype, and function using the flow cytometry.
Mice. SMARTA triple reporter mice were generated in the following manner. First, IL-10 and IL-21 double-reporter mice^33 were generated by cross-breeding IL-21tRFP mice^34-35 with 10 BiT mice (kindly provided by Dr. Casey Weaver, University of Alabama at Birmingham). Double reporter mice were then crossed with GREAT (interferon-gamma reporter with endogenous polyA transcript) mice^36 from Jackson Laboratory (Stock No. 017581). These triple-reporter mice were then crossed with SMARTA mice^37 (kindly provided by Dr. Dorian McGavern, National Institutes of Health). Mice were bred and maintained in a closed breeding facility, and mouse handling conformed to the requirements of the Medical College of Wisconsin Institutional Animal Care and Use Committee guidelines. All experimental protocols were approved by the Medical College of Wisconsin Institutional Animal Care and Use Committee.
Cell culture. To differentiate CD4^+ T cells into a T regulatory cell phenotype, splenocytes from SMARTA triple-reporter mice were processed and the red blood cell lysed using an ACK (ammonium-chloride-potassium) lysis buffer. The cells were then activated with 1 μg/mL […] peptide (GenScript, Piscataway, NJ) and 5 ng/mL TGF-β1 (Shenandoah Biotechnology, Inc., Warwick, PA). […] Cells were cultured for six days and split once cells reached confluency; cells were replenished with IL-2 and compound accordingly. After six days in culture, cells were stained to assess the viability and phenotypic analysis via flow cytometry. LIVE/DEAD fixable violet or aqua dead cell stain (Invitrogen, Carlsbad, CA) was used to assess cell viability. The following antibodies were used for flow cytometry staining: PercP anti-mouse CD4 (clone: GK1.5; BioLegend, San Diego, CA), APC/Cy7 anti-mouse CD25 (clone: PC61; BioLegend), and PE anti-mouse FOXP3 (clone: FJK-16S; eBioscience, San Diego, CA). Flow cytometry data were acquired using a BD LSRII (BD Biosciences, CA) flow cytometer and analysed using FlowJo (Treestar, Inc., Ashland, OR).

MiaPaCa-2 cells = test: MiaPaCa-2 cell proliferation, IncuCyte live-cell imaging (cell confluence); format: cell-based, human; conditions: for IC50: Homo sapiens; for antiproliferative effect compared with corresponding Mito-ATO analog: MiaPaCa-2 cells, controls lacking TPP+ (FIG. 9)
Source text: FIG. 1. […] (A) Chemical structures of ATO and Mito-ATO analogs. […] Cell proliferation was monitored in real-time with the continuous presence of indicated treatments until the end of each experiment. […] Dashed lines represent the fitting curves used to determine their IC50 values as indicated.
(§1) The IncuCyte Live-Cell Imaging system (IncuCyte Essen Bioscience Inc., Ann Arbor, MI) was used to monitor cell proliferation.^11-13 As shown in previous publications,^11,12 this imaging system is probe-free and noninvasive, and enables continuous monitoring of cell confluence over several days. The increase in the percentage of cell confluence was used as a surrogate marker of cell proliferation. In a 96-well plate, cells were plated at 1,000 cells per well in triplicates and left to adhere overnight.

cyt bc1 [3] = conditions: P. falciparum, Y265S mutations (so in the source); cited from earlier work
MiaPaCa-2 and A549 cells = test: Cellular uptake by LC-MS/MS; format: cell-based, human; conditions: Mito10-ATO 0.1 and 1 μM, ATO 1-10 μM; 1, 2, 4 and 24 h
Description: The compounds were extracted according to the published experimental protocol.^11,12 Briefly, cells were washed twice with ice-cold DPBS (Dulbecco's Phosphate Buffered Saline) and harvested. The cell pellet was immediately frozen in liquid nitrogen and stored at −80° C. For the extraction, the pellet was homogenized in 200 μl DPBS (2 μl were taken for protein assay) and extracted twice with a dichloromethane:methanol (2:1) mixture. The organic layers were combined and dried using a SpeedVac concentrator (Thermo Fisher Scientific, Waltham MA). The dry residue was dissolved in ice-cold methanol and taken for LC-MS/MS analysis. LC-MS/MS analyses were performed using a Kinetex Phenyl-Hexyl column (50 mm×2.1 mm, 1.7 μm; Phenomenex, Torrance, CA) equilibrated with a water:acetonitrile mixture (4:1) containing 0.1% formic acid. Compounds were eluted by increasing the content of acetonitrile from 20% to 100% over 4 min and detected using the MRM (multiple reaction monitoring) mode.

mitochondrial complex I [4] = molecular target: mitochondrial complex I (Homo sapiens, UniProt O75251+O75306+P03886); test: Mitochondrial complex I-driven oxygen consumption rate (Seahorse XF96) in permeabilized MiaPaCa-2 cells; format: cell-based; conditions: 24 h treatment
Description: FIG. 2. […] Relative complex I (1.5 mM malate, 10 mM pyruvate, 10 mM ADP)-driven OCR (left) and relative complex III (0.5 mM duroquinol, 10 mM ADP)-driven OCR (right) were monitored by XF-96 analyser. Either Rot (complex I inhibitor) or antimycin A (AA, complex III inhibitor) was acutely added and OCR assayed immediately. […] Dashed lines represent the fitting curves used for determination of the IC50 values.
(§2) Briefly, cells that were intact after treatments were immediately permeabilized using the Seahorse XF Plasma Membrane Permeabilizer (Agilent). The mitochondrial complex I-driven OCR was assayed in mannitol and sucrose buffer^31 containing 10 mM pyruvate and 1.5 mM malate (substrates for complex I) and 10 mM malonate (which inhibits complex II activities). The mitochondrial complex III-driven OCR was assayed in mannitol and sucrose buffer containing 0.5 mM duroquinol (substrate for complex III) and 1 μM Rot and 10 mM malonate (which inhibit both complex I and II activities). The mitochondrial complex-dependent oxygen consumption (calculated as Rot- or antimycin A-inhibitable OCR equals basal OCR less OCR after Rot or antimycin A injection) was plotted against concentrations to determine the IC50 values.

[5] = molecular target: T1, mitochondrial complex III (Homo sapiens, UniProt P00156+P47985); test: Mitochondrial complex III-driven oxygen consumption rate (Seahorse XF96) in permeabilized MiaPaCa-2 cells; format: cell-based; conditions: 24 h treatment
T1 construct: endogenous in cells; host or cells: MiaPaCa-2
Description: FIG. 2. Effects of Mito-ATO analogs on the oxygen consumption induced by mitochondrial complexes I and III. […] MiaPaCa-2 cells were treated with Mito-ATO for 24 h. Relative complex I (1.5 mM malate, 10 mM pyruvate, 10 mM ADP)-driven OCR (left) and relative complex III (0.5 mM duroquinol, 10 mM ADP)-driven OCR (right) were monitored by XF-96 analyser. Either Rot (complex I inhibitor) or antimycin A (AA, complex III inhibitor) was acutely added and OCR assayed immediately. […] Dashed lines represent the fitting curves used for determination of the IC50 values. (n.a., not applicable).
The mitochondrial complex activities were assessed by measuring the oxygen consumption rate (OCR) using the Seahorse technique.^6,11-4 MiaPaCa-2 cells were treated separately with Mito-ATO analogs at different concentrations for 24 h and OCR was measured.
as §2, with “Mitochondrial bioenergetic function was measured in real time using the Seahorse XF 96 Extracellular Flux Analyzer (Agilent, North Billerica, MA).^11-13,22 The OCR-based assessment of mitochondrial complex activities was carried out on acutely permeabilized cells in the presence of different mitochondrial substrates, i.e., pyruvate/malate, for complex I and duroquinol for complex III.^11,14,31,32 Rot, malonate, and antimycin A (Sigma-Aldrich, St. Louis, MO) were used as specific inhibitors of mitochondrial complexes I, II, and III, respectively. Briefly,” for “Briefly,”

[6] = system: MDA-MB-231 human breast cancer cells; test: MDA-MB-231 cell proliferation, IncuCyte; format: cell-based; conditions: MDA-MB-231 cells
Source text: (§3) FIG. 3. […] Cell proliferation was monitored in real-time with the continuous presence of indicated treatments until the end of each experiment. The cell confluence (as control groups reach 98% confluency) is plotted against concentration. Dashed lines represent the fitting curves used to determine the IC50 values as indicated.
as §1

[7] = system: LKR13 mouse lung cancer cells; test: LKR13 cell proliferation, IncuCyte; format: cell-based
Source text: as §3, §1

[8] = system: mitochondrial complex III; test: Complex III-driven OCR in A549, LLC and LKR13 cells; format: cell-based, human, mouse; conditions: A549, LLC, LKR13 cells (FIG. 4)
Description: (§4) FIG. 4. […] Dashed lines represent the fitting curves used for determination of the IC50 values.
(§5) Mitochondrial bioenergetic function was measured in real time using the Seahorse XF 96 Extracellular Flux Analyzer (Agilent, North Billerica, MA).^11-13,22 The OCR-based assessment of mitochondrial complex activities was carried out on acutely permeabilized cells in the presence of different mitochondrial substrates, i.e., pyruvate/malate, for complex I and duroquinol for complex III.^11,14,31,32 Rot, malonate, and antimycin A (Sigma-Aldrich, St. Louis, MO) were used as specific inhibitors of mitochondrial complexes I, II, and III, respectively. Briefly, cells that were intact after treatments were immediately permeabilized using the Seahorse XF Plasma Membrane Permeabilizer (Agilent). The mitochondrial complex I-driven OCR was assayed in mannitol and sucrose buffer^31 containing 10 mM pyruvate and 1.5 mM malate (substrates for complex I) and 10 mM malonate (which inhibits complex II activities). […] The mitochondrial complex-dependent oxygen consumption (calculated as Rot- or antimycin A-inhibitable OCR equals basal OCR less OCR after Rot or antimycin A injection) was plotted against concentrations to determine the IC50 values.

mitochondrial complex I [9] = test: Complex I-driven OCR in A549, LLC and LKR13 cells; format: cell-based, human, mouse; conditions: A549, LLC, LKR13 cells (FIG. 4)
Description: as §4, §5

[10] = system: A549 human lung cancer cells; test: A549 cell proliferation, IncuCyte; format: cell-based
Source text: as §3, §1

[11] = system: LLC mouse lung cancer cells; test: LLC cell proliferation, IncuCyte; format: cell-based
Source text: as §3, §1

mitochondrial complex I (Homo sapiens, UniProt O75251+O75306+P03886), sequence (O75306 34-463): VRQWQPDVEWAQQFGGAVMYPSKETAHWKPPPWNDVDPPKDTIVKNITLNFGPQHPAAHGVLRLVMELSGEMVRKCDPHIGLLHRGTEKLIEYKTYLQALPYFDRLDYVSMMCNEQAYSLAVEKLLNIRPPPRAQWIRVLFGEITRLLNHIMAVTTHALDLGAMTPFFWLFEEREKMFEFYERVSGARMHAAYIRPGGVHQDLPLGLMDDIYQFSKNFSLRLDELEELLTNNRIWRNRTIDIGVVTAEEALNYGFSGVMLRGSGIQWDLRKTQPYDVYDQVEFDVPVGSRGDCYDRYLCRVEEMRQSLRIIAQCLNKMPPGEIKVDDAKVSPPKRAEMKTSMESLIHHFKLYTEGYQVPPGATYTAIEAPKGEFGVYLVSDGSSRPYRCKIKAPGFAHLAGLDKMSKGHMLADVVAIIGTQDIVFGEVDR
mitochondrial complex I (Homo sapiens, UniProt O75251+O75306+P03886), sequence (O75251 39-213): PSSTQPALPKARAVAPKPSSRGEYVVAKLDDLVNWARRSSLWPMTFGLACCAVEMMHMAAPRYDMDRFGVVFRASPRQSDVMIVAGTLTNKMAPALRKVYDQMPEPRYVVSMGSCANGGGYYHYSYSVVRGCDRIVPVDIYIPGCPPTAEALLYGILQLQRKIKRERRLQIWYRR
mitochondrial complex I (Homo sapiens, UniProt O75251+O75306+P03886), sequence (P03886 whole entry): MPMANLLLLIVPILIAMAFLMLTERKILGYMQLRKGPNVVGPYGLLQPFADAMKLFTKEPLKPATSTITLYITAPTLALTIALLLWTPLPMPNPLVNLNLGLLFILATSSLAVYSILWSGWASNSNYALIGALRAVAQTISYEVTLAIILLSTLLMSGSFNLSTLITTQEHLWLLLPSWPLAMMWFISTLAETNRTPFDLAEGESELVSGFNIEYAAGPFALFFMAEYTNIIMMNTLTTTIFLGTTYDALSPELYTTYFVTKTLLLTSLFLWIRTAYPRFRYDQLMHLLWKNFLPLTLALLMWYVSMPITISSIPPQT
cyt bc1 (Homo sapiens, UniProt P00156), sequence (P00156 whole entry): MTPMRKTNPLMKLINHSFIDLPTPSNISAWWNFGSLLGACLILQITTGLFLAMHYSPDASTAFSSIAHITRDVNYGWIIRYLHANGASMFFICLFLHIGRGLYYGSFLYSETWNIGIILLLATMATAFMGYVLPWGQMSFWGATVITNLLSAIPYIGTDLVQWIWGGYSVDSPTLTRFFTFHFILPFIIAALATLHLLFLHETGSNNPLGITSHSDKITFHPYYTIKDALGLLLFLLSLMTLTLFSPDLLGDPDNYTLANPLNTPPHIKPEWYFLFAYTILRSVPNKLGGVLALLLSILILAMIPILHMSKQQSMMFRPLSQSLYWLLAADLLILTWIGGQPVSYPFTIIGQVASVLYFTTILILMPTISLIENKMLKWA

Structure (SMILES): O=C1C(O)=C([C@H]2CC[C@H](c3ccc(Cl)cc3)CC2)C(=O)c2ccccc21 [ATO, trans-2-[4-(4-chlorophenyl)cyclohexyl]-3-hydroxy-1,4-naphthalene-dione]
- IC50 for inhibition of cyt bc1 (cyt bc1 [1]): micromolar range
- Treg (FoxP3+CD25+) differentiation and/or survival [2]: did not inhibit Treg differentiation and/or survival
- IC50 (MiaPaCa-2 cells; MIA PaCa-2, read-out: IC50, inhibition of cell proliferation (cell confluence)): 18000 nM
- increase in IC50 for ATO caused by mutation at Q0 site (cyt bc1 [3]): ~9,000 fold
- cellular uptake / intracellular accumulation (MiaPaCa-2 and A549 cells): uptake was considerably lower and did not accumulate in cancer cells over a 24 h period

Structure (SMILES): O=C1C(OCCCCCCCCCCCC[P+](c2ccccc2)(c2ccccc2)c2ccccc2)=C([C@H]2CC[C@H](c3ccc(Cl)cc3)CC2)C(=O)c2ccccc21 [Mito12-ATO]
- Treg (FoxP3+CD25+) differentiation and/or survival [2]: did not appreciably inhibit Treg differentiation
- inhibition of complex I-induced oxygen consumption (mitochondrial complex I [4]): inhibited only the complex I-induced oxygen consumption
- IC50 (MiaPaCa-2 cells; MIA PaCa-2, MiaPaCa-2 pancreatic cancer cells, continuous treatment, read as control reaches 98% confluency, read-out: IC50, inhibition of cell proliferation (cell confluence)): 350 nM
- inhibition of complex III-induced oxygen consumption [5]: did not inhibit

Structure (SMILES): CCCCCCCCCCOC1=C([C@H]2CC[C@H](c3ccc(Cl)cc3)CC2)C(=O)c2ccccc2C1=O [Decyl-ATO, reference compound]
- Treg (FoxP3+CD25+) differentiation and/or survival [2]: did not inhibit Treg differentiation and/or survival
- antiproliferative effect compared with corresponding Mito-ATO analog (MiaPaCa-2 cells): much less effective than their corresponding Mito-ATO analogs

Structure (SMILES): O=C1C(OCCCC[P+](c2ccccc2)(c2ccccc2)c2ccccc2)=C([C@H]2CC[C@H](c3ccc(Cl)cc3)CC2)C(=O)c2ccccc21 [Mito4-ATO]
- Treg (FoxP3+CD25+) differentiation and/or survival [2]: inhibited Foxp3^+ Treg differentiation and/or survival
- Teff cell IFNγ production [2]: promoted Teff cell IFNγ production in a dose-dependent manner
- inhibition of complex I-induced oxygen consumption (mitochondrial complex I [4]): potently inhibit
- inhibition of complex III-induced oxygen consumption [5]: potently inhibit

Structure (SMILES): CCCCOC1=C([C@H]2CC[C@H](c3ccc(Cl)cc3)CC2)C(=O)c2ccccc2C1=O [Butyl-ATO, reference compound]
- Treg (FoxP3+CD25+) differentiation and/or survival [2]: did not inhibit Treg differentiation and/or survival
- antiproliferative effect compared with corresponding Mito-ATO analog (MiaPaCa-2 cells): much less effective than their corresponding Mito-ATO analogs

Structure (SMILES): O=C1C(OCCCCCCCCCC[P+](c2ccccc2)(c2ccccc2)c2ccccc2)=C([C@H]2CC[C@H](c3ccc(Cl)cc3)CC2)C(=O)c2ccccc21 [Mito10-ATO]
- effect on cell proliferation [6]: effective at halting cell proliferation
- effect on cell proliferation [7]: effective at halting cell proliferation
- inhibition of complex III-induced oxygen consumption [8]: inhibited both mitochondrial complex I- and III-induced oxygen consumption
- Treg (FoxP3+CD25+) differentiation and/or survival [2]: inhibited Foxp3^+ Treg differentiation and/or survival
- Teff cell IFNγ production [2]: promoted Teff cell IFNγ production in a dose-dependent manner
- inhibition of complex I-induced oxygen consumption (mitochondrial complex I [4]): potently inhibit
- inhibition of complex I-induced oxygen consumption (mitochondrial complex I [9]): inhibited both mitochondrial complex I- and III-induced oxygen consumption
- cellular uptake / intracellular accumulation (MiaPaCa-2 and A549 cells): accumulated inside the cells with time
- effect on cell proliferation [10]: effective at halting cell proliferation
- inhibition of complex III-induced oxygen consumption [5]: potently inhibit
- IC50 ([5]; duroquinol, antimycin A-inhibitable OCR, read-out: IC50 to inhibit oxygen consumption by complex III): 780 nM
- effect on cell proliferation [11]: effective at halting cell proliferation

Structure (SMILES): O=C1C(OCCCCCCCCCCCCCCCC[P+](c2ccccc2)(c2ccccc2)c2ccccc2)=C([C@H]2CC[C@H](c3ccc(Cl)cc3)CC2)C(=O)c2ccccc21 [Mito16-ATO]
- inhibition of complex I-induced oxygen consumption (mitochondrial complex I [4]): inhibited only the complex I-induced oxygen consumption
- inhibition of complex III-induced oxygen consumption [5]: did not inhibit
